This note sets out measurements from article PMC9967275, “Screening the Pathogen Box to Discover and Characterize New Cruzain and TbrCatL Inhibitors” (Pathogens, 2023).

Structures are written as SMILES.
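Also: at 5 µM compound concentration.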

The target of the first test is cruzain (Trypanosoma cruzi, UniProt P25779). Nature of the test: biochemical. The following applies: 0’ (no pre-incubation); sheet Screening results. As for the experimental part: (§1) Allison Doak and Prof. Brian Shoichet (University of California San Francisco, San Francisco, CA, USA) and Prof. Conor Caffrey (University of California San Diego, San Diego, CA, USA) generously provided recombinant cruzain and TbrCatL, respectively. In vitro activity of proteases cruzain and TbrCatL was assayed as previously described. Briefly, enzyme activity was measured by monitoring the cleavage of the fluorogenic substrate […] (Z-FR-AMC) at 25 °C. Fluorescence was monitored at 340/440 nm (excitation/emission) over 5–7 min in a Synergy2 Biotek plate reader. […] DMSO and 1 μM E-64 were employed as negative and positive controls, respectively, in all assays. Two conditions were employed for both enzymes: 10′ pre-incubation of the enzyme in the presence of the compound (10′ inc) and no pre-incubation (0′). Reported values correspond to the mean and standard error of the mean (SEM) and all analyses were performed using GraphPad Prism 6.0.
Sequence of cruzain (P25779 123-337 limits assumed): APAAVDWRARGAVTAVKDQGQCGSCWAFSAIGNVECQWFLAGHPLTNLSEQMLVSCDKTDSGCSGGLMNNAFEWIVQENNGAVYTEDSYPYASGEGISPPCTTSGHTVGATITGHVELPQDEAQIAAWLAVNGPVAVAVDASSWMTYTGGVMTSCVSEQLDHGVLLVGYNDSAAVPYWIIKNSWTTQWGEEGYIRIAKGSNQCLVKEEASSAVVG
(§2) For the initial screening, compounds were assayed at 5 μM. […] IC50 curves were obtained from a non-linear fit of at least seven distinct compound concentrations, in triplicate. Reported IC50 values are the mean and SEM of two independent measurements.
For the molecule `Cc1cc(C(=O)Nc2cnn(Cc3ccc(Cl)cc3Cl)c2)no1` [MMV009054], the “Cruzain Inhibition 0’” value is recorded as -1.8%.

As to `c1csc(-c2cnc3sc(NCC4CCOCC4)nn23)c1` [MMV010764], the “Cruzain Inhibition 0’” value came out at 14%.

For the molecule `Cc1ccc(NC(=O)c2nc[nH]c2C(=O)Nc2nc3ccccc3[nH]2)c(C)c1` [MMV011903], the “Cruzain Inhibition 0’” value is -1.2%.

As to `Cc1nc2ccccn2c1C(=O)NCc1ccc(Cl)cc1` [MMV012074], the “Cruzain Inhibition 0’” value worked out at 25%.

As to `Cc1cc(Nc2ccncc2)n2nc(C)c(-c3ccccc3Cl)c2n1` [MMV016136], the “Cruzain Inhibition 0’” value is given as 4.7%.

Regarding `Cc1cc(C)n2nc(C(=O)Nc3cc(C(F)(F)F)ccc3N3CCOCC3)nc2n1` [MMV019087], the “Cruzain Inhibition 0’” value was 1.6%.

Regarding `Cc1ccc2c(c1C)NC(=O)C21NN=C(c2ccccc2)S1` (stereo not shown) [MMV019189], the “Cruzain Inhibition 0’” value is reported as -17%.

With `COc1ccc(C2CC(c3cccs3)=NN2C(=O)c2ccco2)cc1OC` (stereo not shown) [MMV019234], the “Cruzain Inhibition 0’” value stood at 6.6%.

Turning to `CCN(CC)S(=O)(=O)c1ccc(Cl)c(C(=O)Nc2ccc3nc(C)sc3c2)c1` [MMV019721], the “Cruzain Inhibition 0’” value worked out at 6.4%.

Turning to `Cc1ccc(S(=O)(=O)N2CCN(C(=O)c3cc(-c4ccccc4)n[nH]3)CC2)cc1` [MMV019742], the “Cruzain Inhibition 0’” value is listed as -5%.

As to `Cc1ccc2cc(C3NC(=O)c4ccccc4N3)c(Cl)nc2c1` (stereo not shown) [MMV019807], the “Cruzain Inhibition 0’” value is given as 8%.

As to `O=C(Nc1ccnc(-c2cccnc2)n1)c1cc(C(F)(F)F)cc(C(F)(F)F)c1` [MMV019838], the “Cruzain Inhibition 0’” value is recorded as 2%.

As to `CC1CC1C(=O)NC1CCN(CC2(c3ccccc3)CCCCC2)CC1` (stereo not shown) [MMV020120], the “Cruzain Inhibition 0’” value is listed as 1.3%.

Regarding `CNC(=O)c1cc(S(=O)(=O)N2CCN(c3ccccn3)CC2)cs1` [MMV020136], the “Cruzain Inhibition 0’” value stood at 5%.

Regarding `Cc1cc(C(=O)Nc2ccc(-c3ccccc3)cc2)no1` [MMV020152], the “Cruzain Inhibition 0’” value is 3.7%.

As to `Cc1nnc(NC(=O)c2cn(-c3ccccc3)nc2-c2ccccc2C)o1` [MMV020320], the “Cruzain Inhibition 0’” value worked out at 4.5%.

The same test, now with this note: 10’ (pre-incubation); sheet Screening results.
In the case of `Cc1cc(C(=O)Nc2cnn(Cc3ccc(Cl)cc3Cl)c2)no1` [MMV009054], the “Cruzain Inhibition 10’” value was -2%.

On to `c1csc(-c2cnc3sc(NCC4CCOCC4)nn23)c1` [MMV010764], for which the “Cruzain Inhibition 10’” value was determined as 16%.

On to `Cc1ccc(NC(=O)c2nc[nH]c2C(=O)Nc2nc3ccccc3[nH]2)c(C)c1` [MMV011903], for which the “Cruzain Inhibition 10’” value is on record as -15%.

As to `Cc1nc2ccccn2c1C(=O)NCc1ccc(Cl)cc1` [MMV012074], the “Cruzain Inhibition 10’” value was determined as 12%.

For the molecule `Cc1cc(Nc2ccncc2)n2nc(C)c(-c3ccccc3Cl)c2n1` [MMV016136], the “Cruzain Inhibition 10’” value amounted to 4.5%.

As to `Cc1cc(C)n2nc(C(=O)Nc3cc(C(F)(F)F)ccc3N3CCOCC3)nc2n1` [MMV019087], the “Cruzain Inhibition 10’” value was 2.6%.

As to `Cc1ccc2c(c1C)NC(=O)C21NN=C(c2ccccc2)S1` (stereo not shown) [MMV019189], the “Cruzain Inhibition 10’” value is listed as -22%.

With `COc1ccc(C2CC(c3cccs3)=NN2C(=O)c2ccco2)cc1OC` (stereo not shown) [MMV019234], the “Cruzain Inhibition 10’” value is 8%.

Turning to `CCN(CC)S(=O)(=O)c1ccc(Cl)c(C(=O)Nc2ccc3nc(C)sc3c2)c1` [MMV019721], the “Cruzain Inhibition 10’” value was found to be 6.4%.

As to `Cc1ccc(S(=O)(=O)N2CCN(C(=O)c3cc(-c4ccccc4)n[nH]3)CC2)cc1` [MMV019742], the “Cruzain Inhibition 10’” value is listed as -3%.

Consider `Cc1ccc2cc(C3NC(=O)c4ccccc4N3)c(Cl)nc2c1` (stereo not shown) [MMV019807], for which the “Cruzain Inhibition 10’” value is given as 7%.

On to `O=C(Nc1ccnc(-c2cccnc2)n1)c1cc(C(F)(F)F)cc(C(F)(F)F)c1` [MMV019838], for which the “Cruzain Inhibition 10’” value was 16%.

With `CC1CC1C(=O)NC1CCN(CC2(c3ccccc3)CCCCC2)CC1` (stereo not shown) [MMV020120], the “Cruzain Inhibition 10’” value is on record as -0.5%.

On to `CNC(=O)c1cc(S(=O)(=O)N2CCN(c3ccccn3)CC2)cs1` [MMV020136], for which the “Cruzain Inhibition 10’” value is listed as 2%.

Consider `Cc1cc(C(=O)Nc2ccc(-c3ccccc3)cc2)no1` [MMV020152], for which the “Cruzain Inhibition 10’” value is on record as -0.4%.

Take `Cc1nnc(NC(=O)c2cn(-c3ccccc3)nc2-c2ccccc2C)o1` [MMV020320]: the “Cruzain Inhibition 10’” value turned out to be 2.2%.

The target of another test is T1, TbrCatL (Trypanosoma brucei rhodesiense, UniProt Q95PM0).
T1 construct: Conor Caffrey (University of California San Diego)
T1 sequence (Q95PM0 entry or part of it): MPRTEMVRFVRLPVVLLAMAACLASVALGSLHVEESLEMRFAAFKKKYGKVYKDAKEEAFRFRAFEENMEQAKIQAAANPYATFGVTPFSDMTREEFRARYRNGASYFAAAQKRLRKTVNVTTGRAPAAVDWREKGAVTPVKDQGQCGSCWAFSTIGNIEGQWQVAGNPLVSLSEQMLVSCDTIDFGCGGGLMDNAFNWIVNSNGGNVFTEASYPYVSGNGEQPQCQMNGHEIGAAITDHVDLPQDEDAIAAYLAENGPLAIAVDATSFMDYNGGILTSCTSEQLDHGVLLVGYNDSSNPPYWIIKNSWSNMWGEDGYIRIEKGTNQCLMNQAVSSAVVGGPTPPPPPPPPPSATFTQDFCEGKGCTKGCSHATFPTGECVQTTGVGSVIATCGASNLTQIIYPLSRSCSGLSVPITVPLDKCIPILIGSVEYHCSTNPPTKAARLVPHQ
In words: TbrCatL enzymatic inhibition assay (cleavage of fluorogenic substrate Z-FR-AMC). The class given is biochemical. To be noted: 0’ (no pre-incubation); sheet Screening results. Here is the method: as §1, §2
Turning to `Cc1cc(C(=O)Nc2cnn(Cc3ccc(Cl)cc3Cl)c2)no1` [MMV009054], the “TbrCatL Inhibition 0’” value is given as -14%.

In the case of `c1csc(-c2cnc3sc(NCC4CCOCC4)nn23)c1` [MMV010764], the “TbrCatL Inhibition 0’” value was found to be 14%.

For `Cc1ccc(NC(=O)c2nc[nH]c2C(=O)Nc2nc3ccccc3[nH]2)c(C)c1` [MMV011903], the “TbrCatL Inhibition 0’” value is -18%.

For `Cc1nc2ccccn2c1C(=O)NCc1ccc(Cl)cc1` [MMV012074], the “TbrCatL Inhibition 0’” value was -0.2%.

With `Cc1cc(Nc2ccncc2)n2nc(C)c(-c3ccccc3Cl)c2n1` [MMV016136], the “TbrCatL Inhibition 0’” value is listed as 3.2%.

Regarding `Cc1cc(C)n2nc(C(=O)Nc3cc(C(F)(F)F)ccc3N3CCOCC3)nc2n1` [MMV019087], the “TbrCatL Inhibition 0’” value is 4.3%.

On to `Cc1ccc2c(c1C)NC(=O)C21NN=C(c2ccccc2)S1` (stereo not shown) [MMV019189], for which the “TbrCatL Inhibition 0’” value was -21%.

As for `COc1ccc(C2CC(c3cccs3)=NN2C(=O)c2ccco2)cc1OC` (stereo not shown) [MMV019234], the “TbrCatL Inhibition 0’” value is listed as 7%.

For `CCN(CC)S(=O)(=O)c1ccc(Cl)c(C(=O)Nc2ccc3nc(C)sc3c2)c1` [MMV019721], the “TbrCatL Inhibition 0’” value came to 5%.

In the case of `Cc1ccc(S(=O)(=O)N2CCN(C(=O)c3cc(-c4ccccc4)n[nH]3)CC2)cc1` [MMV019742], the “TbrCatL Inhibition 0’” value is given as 3.5%.

With `Cc1ccc2cc(C3NC(=O)c4ccccc4N3)c(Cl)nc2c1` (stereo not shown) [MMV019807], the “TbrCatL Inhibition 0’” value came to 5%.

As for `O=C(Nc1ccnc(-c2cccnc2)n1)c1cc(C(F)(F)F)cc(C(F)(F)F)c1` [MMV019838], the “TbrCatL Inhibition 0’” value was -8%.

In the case of `CC1CC1C(=O)NC1CCN(CC2(c3ccccc3)CCCCC2)CC1` (stereo not shown) [MMV020120], the “TbrCatL Inhibition 0’” value is given as -2.3%.

For `CNC(=O)c1cc(S(=O)(=O)N2CCN(c3ccccn3)CC2)cs1` [MMV020136], the “TbrCatL Inhibition 0’” value is given as -6.4%.

As for `Cc1cc(C(=O)Nc2ccc(-c3ccccc3)cc2)no1` [MMV020152], the “TbrCatL Inhibition 0’” value is recorded as -2%.

`Cc1nnc(NC(=O)c2cn(-c3ccccc3)nc2-c2ccccc2C)o1` [MMV020320]: the “TbrCatL Inhibition 0’” value is listed as -0.2%.

The test is the same for the next values; noted with them: 10’ (pre-incubation); sheet Screening results.
As to `Cc1cc(C(=O)Nc2cnn(Cc3ccc(Cl)cc3Cl)c2)no1` [MMV009054], the “TbrCatL Inhibition 10’” value is on record as -16%.

On to `c1csc(-c2cnc3sc(NCC4CCOCC4)nn23)c1` [MMV010764], for which the “TbrCatL Inhibition 10’” value came to 19%.

As to `Cc1ccc(NC(=O)c2nc[nH]c2C(=O)Nc2nc3ccccc3[nH]2)c(C)c1` [MMV011903], the “TbrCatL Inhibition 10’” value is on record as -43%.

As for `Cc1nc2ccccn2c1C(=O)NCc1ccc(Cl)cc1` [MMV012074], the “TbrCatL Inhibition 10’” value came out at 5.6%.

As for `Cc1cc(Nc2ccncc2)n2nc(C)c(-c3ccccc3Cl)c2n1` [MMV016136], the “TbrCatL Inhibition 10’” value was determined as 6%.

For the molecule `Cc1cc(C)n2nc(C(=O)Nc3cc(C(F)(F)F)ccc3N3CCOCC3)nc2n1` [MMV019087], the “TbrCatL Inhibition 10’” value came to 3%.

For `Cc1ccc2c(c1C)NC(=O)C21NN=C(c2ccccc2)S1` (stereo not shown) [MMV019189], the “TbrCatL Inhibition 10’” value was 14%.

As for `COc1ccc(C2CC(c3cccs3)=NN2C(=O)c2ccco2)cc1OC` (stereo not shown) [MMV019234], the “TbrCatL Inhibition 10’” value was found to be 22%.

As to `CCN(CC)S(=O)(=O)c1ccc(Cl)c(C(=O)Nc2ccc3nc(C)sc3c2)c1` [MMV019721], the “TbrCatL Inhibition 10’” value is on record as -2.6%.

For `Cc1ccc(S(=O)(=O)N2CCN(C(=O)c3cc(-c4ccccc4)n[nH]3)CC2)cc1` [MMV019742], the “TbrCatL Inhibition 10’” value was -2.5%.

Consider `Cc1ccc2cc(C3NC(=O)c4ccccc4N3)c(Cl)nc2c1` (stereo not shown) [MMV019807], for which the “TbrCatL Inhibition 10’” value is on record as 9%.

Regarding `O=C(Nc1ccnc(-c2cccnc2)n1)c1cc(C(F)(F)F)cc(C(F)(F)F)c1` [MMV019838], the “TbrCatL Inhibition 10’” value is on record as -5%.

Consider `CC1CC1C(=O)NC1CCN(CC2(c3ccccc3)CCCCC2)CC1` (stereo not shown) [MMV020120], for which the “TbrCatL Inhibition 10’” value is on record as 3.8%.

As to `CNC(=O)c1cc(S(=O)(=O)N2CCN(c3ccccn3)CC2)cs1` [MMV020136], the “TbrCatL Inhibition 10’” value is -5.6%.

With `Cc1cc(C(=O)Nc2ccc(-c3ccccc3)cc2)no1` [MMV020152], the “TbrCatL Inhibition 10’” value was 1.1%.

Take `Cc1nnc(NC(=O)c2cn(-c3ccccc3)nc2-c2ccccc2C)o1` [MMV020320]: the “TbrCatL Inhibition 10’” value worked out at 4%.
